Measurements: patent US6271342A, “Sugar-modified cytostatics” (Bayer Aktiengesellschaft, priority 1995, dated 2001)
Values after ≈ are worked out from the molar mass of the structure shown.

Key:
[1] = system: SW 480; assay: Growth inhibition test (MTT) for cytotoxic properties; format: cell-based, human
Outline: (§1)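 SW 480 and HT 29 cells in RPMI 1640 with 10% FCS were seeded at 50,000 cells/ml, grown 1 day at 37 °C, then exposed to compound added in DMSO. MTT (5 mg/ml stock) was applied after day 3 and day 6 for 5 h, and formazan absorbance was read at 540 nm. IC50 values reported.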

[2] = system: SW-480; assay: Cleavage kinetics with cells (HPLC); settings: Table 2b; 37° C.
Procedure: Cleavage Kinetics With Cells
(§9) 2.25 ml of PBS are incubated together with 225 μl of a cell suspension (30 mg/ml) and 25 μl of substrate stock solution (1 mg/ml in 3% dimethyl sulphoxide in PBS) at 37° C. After 1 hour and 24 hours, samples of in each case 1 ml are taken, mixed with 1 ml of ethanol and left to stand at 4° C. for 20 minutes. After centrifugation (5 minutes at 3500 rpm), 100 μl of supernatant are taken for the HPLC analysis.

[3] = system: B 16 F 10; assay: Growth inhibition test (MTT) for cytotoxic properties; format: cell-based, mouse; settings: Table 1b
Outline: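 Cells in RPMI 1640 with 10% FCS pre-cultured 1 day at 37° C, then exposed to test substances in DMSO; growth checked after day 3 and day 6. Read-out by MTT, 5 h incubation, isopropanol solubilization, extinction at 540 nm.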

[4] = Cleavage kinetics with human blood (HPLC); format: in vitro ADME; settings: Table 2b; 37° C.
Description: In Vitro Investigation of the Cleavability of the Glycoconjugates
Cleavage Kinetics With Human Blood

[5] = system: bone marrow parent cells; assay: Bone marrow parent cell proliferation after in vivo treatment; set-up: species or system mouse
Procedure: Mice are treated subcutaneously with 1, 3, 10 or 30 mg/kg of the compounds. At various times (3, 24, 48, 72 p. inj.) the femurs are removed and the bone marrow cells isolated. 2×10^5 cells are incubated with GM-CSF as described above and, after 7 days, the colonies and clusters are counted.

[6] = system: hepatoma; assay: Cleavage kinetics with cells (HPLC); settings: Table 2b; 37° C.
Procedure: Cleavage Kinetics With Cells
as §9

[7] = Acute toxicity, single administration; format: in vivo, nu/nu naked mice; settings: single administration i.v., aqueous solution
Procedure: Determination of the Acute Toxicity of Glycoconjugates of Batracyline (Single Administration)
The acute toxicity of the batracyline derivatives was determined on nu/nu naked mice.
The substances administered i.v., as aqueous solutions, and the substances administered i.p., as solutions in dimethyl sulphoxide, were injected once in concentrations of up to 400 mg of substance per kg of mouse.
The individual dose tolerated was calculated from the decrease in the weight of the animals up to 21 days after administration and from the number of animals surviving.

[8] = system: OVXF 899; assay: Two-layer soft agar culture of human tumour xenografts; format: cell-based; settings: T/C ≤30%
Procedure: (§2) The in vitro activity of glycoconjugates of quinolone-a was determined on human tumour xenografts in a two-layer soft agar culture system according to Hamburger and Salmon (Science 197: 461-463).
(§3) The solid tumours were initially grown in the athymic naked mouse (NMRI nu/nu), obtained by surgery and comminuted mechanically. Individual cells were then obtained by incubation in an enzyme mixture of collagenase 0.05%, DNAse 0.07% and hyaluronidase 0.1% in RPMI at 37° C. for 30 minutes. The cells were washed 2× and then passed through a sieve of 200 μm and 20 μm mesh width.
(§4) The base layer comprises 0.2 ml of Iscoves's Modified Dulbeccos Medium with 20% foetal calf serum and 0.7% agar. 40,000 to 200,000 cells in 0.2 ml of the same medium and 0.4% agar were applied to this layer in 24 multiwell plates. The cytostatic substances were added in 0.2 ml of medium.
(§5) The cultures were incubated at 37° C. in a 7% CO2 atmosphere for 6 to 15 days. The colonies which had grown were then counted under an inverting microscope, the living colonies being stained with a tetrazolium chloride dyestuff 24 hours before the evaluation.
(§6) The effect of the active compound is expressed in per cent of surviving colonies compared with the colony count of untreated plates (T/C=colony count treated×100/control count untreated).
(§7) A substance is active if the T/C value is ≤30%.
(§8) This value is shown as the IC70 value in μg/ml in Table 8.

[9] = system: SW 480; assay: as above; format: cell-based; settings: T/C ≤30%
Procedure: as §2, §3, §4, §5, §6, §7, §8

[10] = system: MEXF 989; assay: as above; format: cell-based; settings: T/C ≤30%
Procedure: as §2, §3, §4, §5, §6, §7, §8

[11] = system: HT 29; assay: as above; format: cell-based; settings: T/C ≤30%
Procedure: as §2, §3, §4, §5, §6, §7, §8

[12] = system: CXF 280; assay: as above; format: cell-based; settings: T/C ≤30%
Procedure: as §2, §3, §4, §5, §6, §7, §8

[13] = system: OVXF 1023; assay: as above; format: cell-based; settings: T/C ≤30%
Procedure: as §2, §3, §4, §5, §6, §7, §8

[14] = system: LXFS 538; assay: as above; format: cell-based; settings: T/C ≤30%
Procedure: as §2, §3, §4, §5, §6, §7, §8

[15] = system: LXFL 529; assay: as above; format: cell-based; settings: T/C ≤30%
Procedure: as §2, §3, §4, §5, §6, §7, §8

[16] = system: bone marrow parent cells of the mouse; assay: CSF-induced proliferation of bone marrow parent cells, in vitro; format: cell-based; settings: recombinant murine GM-CSF, 7 days
Procedure: Bone marrow cells are flushed out of the femur of mice. 10^5 cells are incubated in McCoy SA medium (0.3% agar) together with recombinant murine GM-CSF (Genzyme; parent cell colony formation) and the substances (10^-4 to 100 μg/ml) at 37° C. and 7% CO2. 7 days later, the colonies ([…]) and clusters (17-50 cells) are counted.

[17] = system: HT 29; assay: Growth inhibition test (MTT) for cytotoxic properties; format: cell-based, human; settings: Table 1a, glycoconjugates of batracyline
Outline: as §1

[18] = Investigation of organ distribution in naked mice carrying SW 480 tumours; format: in vivo, Athymic naked mice (strain NMRI nu/nu)
Description: Athymic naked mice (strain NMRI nu/nu) bred in "Drug Development Laboratory, Oncotest GmbH", Prof. H. H. Fiebig, Freiburg, were used for all the experiments. The animals were kept in Macrolon cages under laminar flow conditions. Tissue of the cell line SW 480 which had been grown beforehand in several passages in the naked mice, was used as the tumour material.
Two tumours per animal were implanted subcutaneously in the two flanks of the naked mice 6 to 8 weeks old. The animals were kept for 26 to 27 days until the time of randomization. The average tumour size was then 500 mg, corresponding to a tumour diameter of about 10 mm.
The pharmacokinetics themselves proceeded as follows: the substance to be investigated was injected into the naked mice and the mice were then put back in the cages until samples were taken after 1/2 hour and after 4 hours. The taking of samples itself began with sampling of blood. For this, the mouse was anaesthetized by means of anaesthetic ether (duration 1/2 to one minute). 0.5 hour and 4 hours after injection of the substance, the abdominal cavity was opened and the mouse was exsanguinated under anaesthesia via the Vena cava caudalis in the course of 1 to 2 minutes and then sacrificed by breaking its neck. As a result, central circulatory arrest occurred and organ perfusion was suppressed. The individual organs were then exposed and removed, an operation which took about 5 minutes. Immediately thereafter, the organ samples and then the remainder of the body were weighed and frozen in liquid nitrogen.
The substance "conjugate 1" is administered i.p. in an amount of 300 mg/kg of body weight and the substance "conjugate 2" is administered i.v. into the tail vein in an amount of 100 mg/kg. 5 animals are used per substance and time.
5, 10, 50, 100 and 200 μg of substance, dissolved in ethanol/water (1:1, v/v) were added to 1 g of bovine liver. The samples were then ground in a mortar with 1 g of sea sand and 2.5 ml of cooled ethanol/water (1:1, v/v) and centrifuged at 3500 rpm for 2 minutes. After removal of the supernatant, the residue was again mixed with 2.5 ml of ethanol/water and centrifuged and the supernatants were combined. In each case 100 μl were taken and analyzed by HPLC.
The organs were worked up analogously to A, the entire organs being broken down with 2.5 ml of ethanol/water and extracted.
The amount of blood taken was mixed with 2 ml of ethanol/water (1:1, v/v) and centrifuged for 2 minutes at 3500 rpm, and the supernatant was decanted. 2 ml of ethanol/water (1:1, v/v) were again added to the residue, the mixture was centrifuged and the supernatants were combined. In each case 100 μl of the combined supernatants were analyzed by HPLC. The HPLC conditions used under A were used. [drawing 14]

[19] = as above; format: in vivo, Athymic naked mice (strain NMRI nu/nu); settings: after conjugate 1 i.p. 300 mg/kg
[20] = system: B16F10 tumour; assay: In vivo test, survival of mice with transplanted B16F10 tumour; set-up: species or system mouse; settings: 0.1 mg/kg, treated daily
Procedure: Mice are inoculated with 5×10^6 B16F10 tumour cells on day 0. The animals in which tumour cells are transplanted develop solid peritoneal tumours and are then treated daily with test substances or with the vehicle control. In the control group, 50% of the animals usually die between day 14 and 20. The test substances are administered in buffer or an organic solvent system comprising 20% methanol and 20% dimethyl sulphoxide in 0.7% sodium chloride solution.
The therapeutic result arises from the prolonging of the survival time of the treated animals. […] A therapeutic index can be estimated from the tolerance and prolonging of the survival time.

[21] = Kidney, after conjugate 2 i.v. 100 mg/kg
[22] = Tumour, after conjugate 2 i.v. 100 mg/kg

## C[C@@H]1O[C@H](Oc2ccc(NC(=S)N[C@H](C)C(=O)NC3C=CCC4CN(c5c(F)cc6c(=O)c(C(=O)O)cn(C7CC7)c6c5Cl)CC43)cc2)[C@@H](O)[C@H](OCC(=O)[O-])[C@@H]1O.[Na+] (stereo partly drawn) [Example 12.3, N-{N'-[O-(3-O-Carboxymethyl-β-L-fucosyl)-4-hydroxy-phenylamino-thiocarbonyl]-D-alanyl}-quinolone-a, mono-sodium salt]
[1]; Table 1b
  IC50: 2 µM
[2]
  % cleavage in SW-480 1 hour: 0%
  % cleavage in SW-480 24 hours: 0%
[3]
  IC50: 0.3 µM
[4]
  % cleavage in human blood 1 hour: 0%
  % cleavage in human blood 24 hours: 0%
[5]; up to 30 mg/kg, subcutaneously
  inhibition in parent cell proliferation in vivo: no inhibition
[6]
  % cleavage in hepatoma 1 hour: 0%
  % cleavage in hepatoma 24 hours: 0%
[7]
  Individual dose tolerated in mg/kg of mouse, i.v.: > 200 mg/kg of mouse
[8]
  IC70 /μg/ml: 162 µg/mL
[9]
  IC70 /μg/ml: 11 µg/mL
[10]
  IC70 /μg/ml: < 0.3 µg/mL
[11]
  IC70 /μg/ml: 5 µg/mL
[12]
  IC70 /μg/ml: 5 µg/mL
[13]
  IC70 /μg/ml: 10 µg/mL
[14]
  IC70 /μg/ml: 0.5 µg/mL
[15]
  IC70 /μg/ml: 2 µg/mL
[16]
  IC50 [μg/ml] CSF-induced proliferation of bone marrow parent cells of the mouse: 0.27 µg/mL

## batracyline
[1]; Table 1a, glycoconjugates of batracyline
  IC50: 25 µM
[17]
  IC50: 20 µM
[18]; Kidney, after conjugate 1 i.p. 300 mg/kg
  Mean 4 hours (μg/g of organ): 27.5 μg/g of organ
[18]; [21]
  Mean 0.5 hour (μg/g of organ): 10.7 μg/g of organ
  Mean 4 hours (μg/g of organ): 0.8 μg/g of organ
[18]; Liver, after conjugate 1 i.p. 300 mg/kg
  Mean 4 hours (μg/g of organ): 22.4 μg/g of organ
[18]; [22]
  Mean 0.5 hour (μg/g of organ): 2.5 μg/g of organ
  Mean 4 hours (μg/g of organ): 3.12 μg/g of organ
[19]; Kidney
  Mean 1 hour (μg/g of organ): 26.1 μg/g of organ
[19]; Liver
  Mean 1 hour (μg/g of organ): 34.1 μg/g of organ

## N[C@@H]1C=CC[C@@H]2CN(c3c(F)cc4c(=O)c(C(=O)O)cn(C5CC5)c4c3Cl)C[C@@H]21 (racemic) [Quinolone-a, 7-[(3aRS,4RS,7aSR)-4-amino-1,3,3a,4,7,7a-hexahydro-isoindol-2-yl]-8-chloro 1-cyclopropyl-6-fluoro-1,4-dihydro4-oxo-3-quinolinecarboxylic acid, reference compound]
[5]; 3 mg/kg, subcutaneously (FIG. 1)
  suppression of parent cell proliferation in vivo: massive suppression
[7]
  Individual dose tolerated in mg/kg of mouse, i.v.: < 25 mg/kg of mouse
[8]
  IC70 /μg/ml: 2 µg/mL (≈ 4.79 µM)
[9]
  IC70 /μg/ml: 3 µg/mL (≈ 7.18 µM)
[10]
  IC70 /μg/ml: < 0.3 µg/mL
[11]
  IC70 /μg/ml: 20 µg/mL (≈ 47.9 µM)
[12]
  IC70 /μg/ml: 6 µg/mL (≈ 14.4 µM)
[13]
  IC70 /μg/ml: 0.5 µg/mL (≈ 1.2 µM)
[14]
  IC70 /μg/ml: < 0.3 µg/mL
[15]
  IC70 /μg/ml: 3 µg/mL (≈ 7.18 µM)
[20]
  % survivors Day 0: 100%
  % survivors Day 20: 100%
  % survivors Day 25: 100%
  % survivors Day 30: 60%
  % survivors Day 35: 40%
[16]; Mus musculus, 168 h, read-out: IC50 [μg/ml] CSF-induced proliferation of bone marrow parent cells of the mouse
  IC50: 0.0002 µg/mL
